Data taken from patent US6995153B2, “Fused bicyclic pyrimidine derivatives” (Kyorin Pharmaceutical. Co., Ltd., priority 2002, dated 2006).

What was measured:
NK1 receptor = target: T1, NK1 receptor (Cavia porcellus, UniProt P30547); assay: Test for NK1 receptor antagonist: substance P concentration-response in isolated guinea pig ileum, Schild analysis; settings: against substance P, 10 min pretreatment, method of Schild
T1 construct: from tissue; host or cells: isolated guinea pig ileum
Experimental: (1) Test for NK1 Receptor Antagonist
The method used was according to the method proposed by S. Dion et al.(Dion et al., Life Sciences 41(1987): 2269), to which minor modifications were made.
Guinea pigs were stunned by a blow on the head and were exsanguinated from the carotid artery and ilea were isolated. The ileum was mounted in an organ bath containing Tyrode's solution which was maintained at 32° C., and gased with 95% O2 and 5% CO2. The ileum was subjected to a resting tension of 1-gram and allowed to equilibrate for 20 minutes before the experiment was started. As a control, a concentration-response curve for substance P in the absence of any of test compounds was used. The NK1 receptor antagonist activity of each test compound was determined by a concentration-response curve obtained by pretreating at least three concentrations of the test compound for 10 minutes and subsequently applying substance P in a cumulative manner. The Kb values were determined according to the method of Schild and the results are shown in Table 1 (Schild Brit. J. Pharmacol. 14(1959): 49).
The composition of the Tyrode's solution was as follows: NaCl=136.9, KCl=2.7, CaCl2.2H2O=2.5, MgCl2.6H2O=1.0, NaH2PO4.2H2O=0.4, NaHCO3=11.9, glucose=11.1(mmol/L)

Guinea pigs = assay: Cystometry test on guinea pigs with cut spinal cord (effective bladder capacity); format: in vivo; settings: guinea pig
Text: (2) Cystometry Test on Guinea Pigs
The method used was according to the method proposed by J S. Peterson et al. (Peterson J S. et al., J. Pharmacol. Methods 21(1989): 231), to which minor modifications were made.
Guinea pigs were anesthetized with halothane and the tenth thoracic spinal cord was cut in each animal. Subsequently, both ureters were ligated and were cut on the kidney-side. Polyethylene catheters were inserted into the bladder to provide an injection pathway for physiological saline and a pathway for the measurement of intravesical pressure. Each animal was restricted in a Ballman cage and was left for more than 2 hours. Subsequently, room-temperature saline was injected through the bladder catheter into the bladder at a rate of 6 mL/hr to conduct a cystometry test. Once the effective bladder capacity was stabilized, a test compound was intravenously administered into the jugular vein. The effective bladder capacity is defined as the volume of saline injected from one urination to the next. The effect of each test compound was determined as the increase in the average bladder volume, which was determined based on the average bladder volume measured 30 minutes prior to the administration of the test compound and the average bladder volume measured every 30 minutes after the administration of the test compound.

T1 sequence (P30547 whole entry): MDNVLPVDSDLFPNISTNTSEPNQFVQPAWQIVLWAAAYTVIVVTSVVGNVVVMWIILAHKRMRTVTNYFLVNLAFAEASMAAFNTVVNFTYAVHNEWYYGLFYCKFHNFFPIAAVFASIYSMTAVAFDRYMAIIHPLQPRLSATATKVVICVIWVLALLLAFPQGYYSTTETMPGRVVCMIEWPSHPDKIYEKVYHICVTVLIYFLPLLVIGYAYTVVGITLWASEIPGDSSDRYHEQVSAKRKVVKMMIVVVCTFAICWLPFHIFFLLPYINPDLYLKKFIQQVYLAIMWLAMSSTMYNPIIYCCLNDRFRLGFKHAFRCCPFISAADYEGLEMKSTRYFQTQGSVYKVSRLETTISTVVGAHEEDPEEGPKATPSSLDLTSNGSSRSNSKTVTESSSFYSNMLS

| Compound | Kb (NK1 receptor) [nM] | other results |
| --- | --- | --- |
| Cc1ccccc1-c1nc(N2CCN(c3ncccn3)CC2)nc2c1C(=O)N(Cc1cc(C(F)(F)F)cc(C(F)(F)F)c1)CCCO2 [Example 14, 5-[3,5-bis(trifluoromethyl)benzyl]-7-(2-methylphenyl)-6-oxo-9-[4-(pyrimidine-2-yl)piperazine-1-yl]-2,3,4,5-tetrahydro-6H-pyrimido[4,5-b][1,5]oxazocine] | 0.798 | – |
| Cc1ccc(-c2c3n(c(=O)c4ncccc24)CC[C@@H](C)CN(Cc2cc(C(F)(F)F)cc(C(F)(F)F)c2)C3=O)cc1 [TAK-637, reference compound] | 0.269 | Increase in bladder capacity (%) (Guinea pigs; 0.3 mg/kg i.v.): 12.0%; Increase in bladder capacity (%) (Guinea pigs; 1 mg/kg i.v.): 23.8%; Increase in bladder capacity (%) (Guinea pigs; 3 mg/kg i.v.): 20.5% |
| Cc1ccccc1-c1nc(-n2ccnc2)nc2c1C(=O)N(Cc1cc(C(F)(F)F)cc(C(F)(F)F)c1)CCCO2 [Example 18, 5-[3,5-bis(trifluoromethyl)benzyl]-9-(imidazole-1-yl)-7-(2-methylphenyl)-6-oxo-2,3,4,5-tetrahydro-6H-pyrimido[4,5-b][1,5]oxazocine] | 0.459 | – |
| Cc1ccccc1-c1nc(N2CCS(=O)(=O)CC2)nc2c1C(=O)N(Cc1cc(C(F)(F)F)cc(C(F)(F)F)c1)CCCO2 [Example 20, 5-[3,5-bis(trifluoromethyl)benzyl]-9-(1,1-dioxothiomorpholine-4-yl)-7-(2-methylphenyl)-6-oxo-2,3,4,5-tetrahydro-6H-pyrimido[4,5-b][1,5]oxazocine] | 0.0794 | Increase in bladder capacity (%) (Guinea pigs; 0.3 mg/kg i.v.): 40.4% |
| O=C1c2c(nc(N3CCC(N4CCCC4)CC3)nc2-c2ccc(F)cc2)OCCCN1Cc1cc(C(F)(F)F)cc(C(F)(F)F)c1 [Example 13, 5-[3,5-bis(trifluoromethyl)benzyl]-7-(4-fluorophenyl)-6-oxo-9-[4-(pyrrolidine-1-yl)piperidine-1-yl]-2,3,4,5-tetrahydro-6H-pyrimido[4,5-b][1,5]oxazocine] | 0.217 | – |
| COc1ccccc1-c1nc(N2CCN(C(C)=O)CC2)nc2c1C(=O)N(Cc1cc(C(F)(F)F)cc(C(F)(F)F)c1)CCCO2 [Example 29, 9-(4-acetylpiperazine-1-yl)-5-[3,5-bis(trifluoromethyl)benzyl]-7-(2-methoxyphenyl)-6-oxo-2,3,4,5-tetrahydro-6H-pyrimido[4,5-b][1,5]oxazocine] | 0.1 | – |
| Cc1ccccc1-c1nc(N2CCN(C)CC2)nc2c1C(=O)N(Cc1cc(C(F)(F)F)cc(C(F)(F)F)c1)CCCO2 [Example 44, 5-[3,5-bis(trifluoromethyl)benzyl]-7-(2-methylphenyl)-9-(4-methylpiperazine-1-yl)-6-oxo-2,3,4,5-tetrahydro-6H-pyrimido[4,5-b][1,5]oxazocine] | 0.00631 | – |
| CC(=O)N1CCCN(c2nc3c(c(-c4ccccc4C)n2)C(=O)N(Cc2cc(C(F)(F)F)cc(C(F)(F)F)c2)CCCO3)CC1 [Example 41, 9-(4-acetylhomopiperazine-1-yl)-5-[3,5-bis(trifluoromethyl)benzyl]-7-(2-methylphenyl)-6-oxo-2,3,4,5-tetrahydro-6H-pyrimido[4,5-b][1,5]oxazocine] | 0.308 | Increase in bladder capacity (%) (Guinea pigs; 0.3 mg/kg i.v.): 36.8% |
| CC(=O)NC1CCN(c2nc3c(c(-c4ccccc4C)n2)C(=O)N(Cc2cc(C(F)(F)F)cc(C(F)(F)F)c2)CCCO3)C1 (centres unmarked) [Example 27, 5-[3,5-bis(trifluoromethyl)benzyl]-9-[3-(acetylamino)pyrrolidine-1-yl]-7-(2-methylphenyl)-6-oxo-2,3,4,5-tetrahydro-6H-pyrimido[4,5-b][1,5]oxazocine] | 0.44 | – |
| Cc1ccccc1-c1nc(N2CCC(N(C)C)C2)nc2c1C(=O)N(Cc1cc(C(F)(F)F)cc(C(F)(F)F)c1)CCCO2 (centres unmarked) [Example 25, 5-[3,5-bis(trifluoromethyl)benzyl]-9-[3-(dimethylamino)pyrrolidine-1-yl]-7-(2-methylphenyl)-6-oxo-2,3,4,5-tetrahydro-6H-pyrimido[4,5-b][1,5]oxazocine] | 0.427 | – |
| CC(=O)NC1CCN(c2nc3c(c(-c4ccccc4C)n2)C(=O)N(Cc2cc(C(F)(F)F)cc(C(F)(F)F)c2)CCCO3)CC1 [Example 37, 9-[4-(acetylamino)piperidine-1-yl]-5-[3,5-bis(trifluoromethyl)benzyl]-7-(2-methylphenyl)-6-oxo-2,3,4,5-tetrahydro-6H-pyrimido[4,5-b][1,5]oxazocine] | 0.151 | – |
| Cc1ccccc1-c1nc(N2CCC(NS(C)(=O)=O)CC2)nc2c1C(=O)N(Cc1cc(C(F)(F)F)cc(C(F)(F)F)c1)CCCO2 [Example 38, 5-[3,5-bis(trifluoromethyl)benzyl]-9-[4-(methylsulfonylamino)piperidine-1-yl]-7-(2-methylphenyl)-6-oxo-2,3,4,5-tetrahydro-6H-pyrimido[4,5-b][1,5]oxazocine] | 0.214 | – |
| COc1ccccc1-c1nc(N2CCS(=O)(=O)CC2)nc2c1C(=O)N(Cc1cc(C(F)(F)F)cc(C(F)(F)F)c1)CCCO2 [Example 43, 5-[3,5-bis(trifluoromethyl)benzyl]-9-(1,1-dioxothiomorpholine-4-yl)-7-(2-methoxyphenyl)-6-oxo-2,3,4,5-tetrahydro-6H-pyrimido[4,5-b][1,5]oxazocine] | 0.123 | – |
| CC(=O)N1CCN(c2nc3c(c(-c4ccccc4C)n2)C(=O)N(Cc2cc(C(F)(F)F)cc(C(F)(F)F)c2)CCCO3)CC1 [Example 16, 9-(4-acetylpiperazine-1-yl)-5-[3,5-bis(trifluoromethyl)benzyl]-7-(2-methylphenyl)-6-oxo-2,3,4,5-tetrahydro-6H-pyrimido[4,5-b][1,5]oxazocine] | 0.105 | Increase in bladder capacity (%) (Guinea pigs; 0.3 mg/kg i.v.): 59.4%; melting point: 160.5 to 163.5 °C |
| Cc1ccccc1-c1nc(N2CCCN(C)CC2)nc2c1C(=O)N(Cc1cc(C(F)(F)F)cc(C(F)(F)F)c1)CCCO2 [Example 26, 5-[3,5-bis(trifluoromethyl)benzyl]-9-(4-methylhomopiperazine-1-yl)-7-(2-methylphenyl)-6-oxo-2,3,4,5-tetrahydro-6H-pyrimido[4,5-b][1,5]oxazocine] | 0.398 | – |
| O=C1c2c(nc(N3CCOCC3)nc2-c2ccccc2F)OCCCN1Cc1cc(C(F)(F)F)cc(C(F)(F)F)c1 [Example 2, 5-[3,5-bis(trifluoromethyl)benzyl]-7-(2-fluorophenyl)-9-(morpholine-4-yl)-6-oxo-2,3,4,5-tetrahydro-6H-pyrimido[4,5-b][1,5]oxazocine] | 0.294 | – |
